This is an account of results in patent US12697328B2, “Methods for treating metastasis with cathepsin C inhibitors” (Shanghai Institute of Nutrition and Health, Chinese Academy …, priority 2020, dated 2026).

The target of assay [1] is T1, membrane-bound PR3 (Homo sapiens, UniProt P24158).
T1 construct: endogenous in cells; host or cells: human peripheral-blood neutrophils (whole-cell suspension)
T1 sequence (P24158 28-248): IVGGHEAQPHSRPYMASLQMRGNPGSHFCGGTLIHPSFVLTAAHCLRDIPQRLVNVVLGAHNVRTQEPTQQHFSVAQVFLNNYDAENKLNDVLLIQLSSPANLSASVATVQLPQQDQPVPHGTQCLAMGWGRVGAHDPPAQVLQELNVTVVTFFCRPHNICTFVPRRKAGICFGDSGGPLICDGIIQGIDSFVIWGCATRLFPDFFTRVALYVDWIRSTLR
Put plainly: Membrane-bound PR3 activity of neutrophils cultured with CM of SCP28 cells overexpressing CTSC. To be noted: Sivelestat 10 μM, Alvelestat 10 μM, CTSGi 20 μM, FIG. 7D. Type of assay: cell-based. On the procedure:
The procedure of enzyme activity assays were conducted as previously reported (Korkmaz et aL, “Neutrophil proteinase 3 and dipeptidyl peptidase I (cathepsin C) as pharmacological targets in granulomatosis with polyangiitis (Wegener granulomatosis),” Semin. Immunopathol. 35:411-421 (2008)). The PR3 or NE enzymatic activity was quantified by detecting the rate of hydrolysis of the PR3-specific substrate (Abz)-VADnorVADRQ-(EDDnp) or NE specific substrate (Abz)-APEEIMRRQ-(EDDnp) by cell suspension or free enzymes. To analyze membrane-bound PR3 activity, neutrophils were cultured in cancer cell CM or non-conditioned medium, and treated with DMSO or various inhibitors, including Sivelestat (10 μM), Alvelestat (10 μM) and CTSGi (20 μM) for 30-45 min at 37° C. Then, cells were suspended in activity buffer (5×10^6 per ml, PBS, 4 mM EGTA, pH 7.4) with 15 μM of the PR3-specific substrate, and the kinetic of hydrolysis was followed by measuring the fluorescence at λex=320 nm and λem=420 nm. For activation of PR3 in isolated plasma membrane fraction, recombinant human CTSC (1071-CY, R&D) was activated according to the manufacturer's instruction. […] The activity of free PR3 and NE were measured in the assay buffer (50 mM Tris, 750 mM NaCl, pH 7.4) with 15 μM specific substrates by recording the fluorescence at λex=320 nm and λem=420 nm. […]

Assay [2] addresses T2, CTSC (Homo sapiens, UniProt P53634).
T2 construct: The CTSC protein secretion level in tumor cells with different capabilities of metastasis to various target organs; endogenous in cells; host or cells: metastatic breast cancer cells (MDA-MB-231, SP16, SP16L; bone-metastatic lines) and bone-metastatic lung cancer cells
Nature of the assay: CTSC protein expression in metastatic tumor cells. To be noted: a number of metastatic tumor cell types treated with brensocatib; FIGS. 11A-C. It counts as cell-based.
Protocol: Cultured cells were collected by scraper or trypsinized and then lysed with lysis buffer (50 mM Tris-HCl, 150 mM NaCl, 1% NP-40 detergent, 0.5% sodium deoxycholate, 0.1% SDS with phosphatase and protease inhibitors), and dispersed tissue were homogenized in RIPA buffer on ice for 15 min, followed by centrifugation at 17,000 g for 15 min. The protein concentration was measured with a BCA Protein Assay Kit. Proteins of 10 μg, 80 μg, 30 μg were loaded for membrane proteins, IL-1β processing, p65 phosphorylation and the other assays, respectively, and separated on 8-12% SDS-polyacrylamide gel. For cancer cell conditioned medium (CM) collection, cells were grown to ~80% confluence in 10 cm culture dishes. After three times washing with serum-free medium at 37° C., the cells were incubated in serum-free medium at 37° C. for 24 h. The CM were collected, centrifuged at 2,000 g for 10 min, filtrated by 0.22 μm filters, stored at −80° C. until used. The secreted proteins in CM were collected by TCA precipitation. Briefly, 25% v/v TCA was added into 1 ml CM with phosphatase and protease inhibitors, incubated overnight at 4° C., and then centrifuged at 20,000 g for 60 min, after which the supernatant was discarded and the pellet was washed twice with 1 ml pre-chilled acetone, centrifuged again at 20,000 g for 5 min at 4° C. […]

Assay [3] deals with 4T1 breast cancer cells. Nature of the assay: Tumor sphere formation of 4T1 cells in medium of neutrophils pre-treated with 4T1 CM. To be noted: 4T1 cells in medium of neutrophils pre-treated with CM of 4T1; vs untreated control; FIG. 10F. It counts as cell-based.
For assay [4], the system named is pancreatic cancer cells KP4. Put plainly: Mouse xenograft, pancreatic tumor cells by spleen injection (liver metastasis). Type of assay: in vivo. To be noted: nude mice, FIG. 12C. On the procedure: A series of mouse xenograft studies are conducted by injecting liver and pancreatic tumor cells into nude mice by spleen injection. Then the mice are treated by brensocatib, and the growth of the tumors in liver is observed.

In assay [5] the test system is bone-metastatic breast cancer cell SCP2. Nature of the assay: Tumor sphere formation of bone-metastatic breast cancer cells in neutrophil medium. It counts as cell-based. To be noted: neutrophils cultured with cancer cell CM with or without brensocatib, FIG. 11E. On the procedure:
(§1) The neutrophils are cultured with conditioned medium from the cancer cells with or without brensocatib treatment to activate NETosis, and then the neutrophil medium was used in tumor sphere formation of bone and liver-metastatic breast cancer cells to analyze the effect of neutrophil medium to facilitate tumor cell growth. The data are shown in FIG. 11E for bone-metastatic breast cancer cell SCP2 and FIG. 11H for liver-metastatic breast cancer cell SCP16.

Assay [6] has as its system colon cancer cells SW480. Put plainly: NET-promoted tumor sphere formation, colon cancer. Type of assay: cell-based. To be noted: neutrophil medium, CM with or without brensocatib, FIG. 11K. On the procedure:
(§2) To test the therapeutic effects of brensocatib in different cancer types in vitro, the ability of brensocatib to inhibit NET-promoted tumor sphere formation is investigated. The neutrophils are cultured with conditioned medium from tumor cells of colon cancer, liver cancer, lung cancer, gastric cancer and pancreatic cancer with or without brensocatib treatment to activate NETosis, and then the neutrophil medium was used in tumor sphere formation of these cancer cells to analyze the effect of neutrophil medium to facilitate tumor cell growth. The amount of tumorsphere in each sample is then determined by imaging.

The test system of assay [7] is liver-metastatic breast cancer cell SCP16. Nature of the assay: Tumor sphere formation of liver-metastatic breast cancer cells in neutrophil medium. Type of assay: cell-based. To be noted: neutrophils cultured with cancer cell CM with or without brensocatib, FIG. 11H. On the procedure: as §1
The test system of assay [8] is lung cancer cells A549. Put plainly: NET-promoted tumor sphere formation, lung cancer. To be noted: neutrophil medium, CM with or without brensocatib, FIG. 11L. Type of assay: cell-based. On the procedure:
as §2

Assay [9] deals with gastric cancer cells AGS. Nature of the assay: NET-promoted tumor sphere formation, gastric cancer. Type of assay: cell-based. To be noted: neutrophil medium, CM with or without brensocatib, FIG. 11M. On the procedure:
as §2

Assay [10] has as its system hepatocellular carcinoma cells HUH7. Nature of the assay: NET-promoted tumor sphere formation, liver cancer. Type of assay: cell-based. To be noted: neutrophil medium, CM with or without brensocatib, FIG. 11N. On the procedure:
as §2

T2 sequence (P53634 25-463): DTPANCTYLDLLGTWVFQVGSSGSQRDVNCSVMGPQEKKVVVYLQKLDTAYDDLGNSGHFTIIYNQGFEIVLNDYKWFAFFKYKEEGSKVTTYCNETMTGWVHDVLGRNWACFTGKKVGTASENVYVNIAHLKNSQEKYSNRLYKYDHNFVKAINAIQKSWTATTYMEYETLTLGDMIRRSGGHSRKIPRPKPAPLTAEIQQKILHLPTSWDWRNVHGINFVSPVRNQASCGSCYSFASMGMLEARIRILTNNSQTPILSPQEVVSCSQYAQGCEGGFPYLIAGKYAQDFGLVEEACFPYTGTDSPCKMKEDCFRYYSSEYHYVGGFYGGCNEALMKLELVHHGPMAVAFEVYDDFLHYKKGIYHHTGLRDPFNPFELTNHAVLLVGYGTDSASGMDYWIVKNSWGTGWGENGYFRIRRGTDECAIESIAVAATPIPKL

`CC(C)(C)C(=O)Oc1ccc(S(=O)(=O)Nc2ccccc2C(=O)NCC(=O)O)cc1` [Silvelestat]: the “upregulated PR3 activity resulting from CTSC overexpression” value in assay [1] is given as “significantly reduces”.
Consider `Cn1c(=O)oc2ccc(-c3ccc(C[C@@H](C#N)NC(=O)[C@@H]4CNCCCO4)cc3)cc21` [brensocatib, (2S)—N-{(1S)-1-cyano-2-[4-(3-methyl-2-oxo-2,3-dihydro-1,3-benzoxazol-5-yl)phenyl]ethyl}-1,4-oxazepane-2-carboxamide], for which the CTSC protein expression entry in assay [2] is listed as “significantly reduced”. Further, the tumor sphere formation entry in [3] is “suppressed”. The “metastatic growth of pancreatic cancer cells KP4 in liver” value in assay [4] is given as “significantly inhibits”. The “capability of drug-treated neutrophils to facilitate tumor cell growth (tumor sphere formation)” value in [5] and in [7] was “significantly weakened” in each case. The “NET-promoted tumor sphere formation (in vitro tumor growth)” value in [6], in assay [8], in assay [9] and in [10] was “inhibit in vitro tumor growth” each time.
